“Also recorded” adds a separate entry of the source. Like-named read-outs stand apart in the source and are kept apart here.
Tests used:
[1] = tested on: influenza virus (fowl plague virus, FPV); set-up: species or system C57 Bl/6 mice; conditions: mouse, in vivo
[2] = tested on: influenza A virus strain fowl plague virus (FPV); type: cell-based
[3] = tested on: influenza A virus strain fowl plague virus (FPV); type: cell-based; remark: listed apart in the source
influenza virus = conditions: cited from earlier work
[4] = tested on: influenza virus (fowl plague virus, FPV); conditions: mouse, in vivo, ip

| Structure (SMILES) | animals that survived the infection [1] | antiviral effect compared with lower concentrations [1] | average survival time of the dead animals versus control group [1] | influenza virus multiplication in the lung and in the total organism [1] | viruses in the lung [1] | inhibiting effect on virus multiplication [2] [log steps] | reduction of the virus titers by a factor [2] | antiviral effectivity in vitro [3] | inhibition of the virus multiplication [3] [log steps] | concentration from which inhibition of influenza virus infections in cell culture was observed (influenza virus) [mM] | concentration from which inhibition of influenza virus infections in cell culture was observed (influenza virus; conversion of the mM values) [mg/mL] | animals that survived the infection [4] | average survival time of the dead animals versus control group [4] | body weight [4] | reduction of the virus titers [3] |
| --- | --- | --- | --- | --- | --- | --- | --- | --- | --- | --- | --- | --- | --- | --- | --- |
| CC(=O)Oc1ccccc1C(=O)O [ASA, acetylsalicylic acid] | approx. 40% | comparatively not stronger; also recorded: clearly less antivirally effective | clearly longer | distinct inhibition | Smaller doses of ASA more clearly reduced the viruses in the lung than higher doses | > 2 | 10 | have not shown in vitro any antiviral effectivity | 2 | 5 to 10 | 0.9 to 1.8 | approx. 20% | clearly longer | distinct reduction in body weight |  |
| S=C(S)N1CCCC1 [PDTC, pyrrolidine dithiocarbamate] |  |  |  |  |  |  |  |  |  |  |  |  |  |  | approx. 10 fold |

Reference: patent publication US8313751B2, “Compositions and methods for the prophylaxis or treatment of viral diseases” (priority 2003, dated 2012)
